For this test, the target named is T1, human monoacylglycerol lipase (MGL) (Homo sapiens, UniProt Q99685).
T1 sequence (Q99685 1-303): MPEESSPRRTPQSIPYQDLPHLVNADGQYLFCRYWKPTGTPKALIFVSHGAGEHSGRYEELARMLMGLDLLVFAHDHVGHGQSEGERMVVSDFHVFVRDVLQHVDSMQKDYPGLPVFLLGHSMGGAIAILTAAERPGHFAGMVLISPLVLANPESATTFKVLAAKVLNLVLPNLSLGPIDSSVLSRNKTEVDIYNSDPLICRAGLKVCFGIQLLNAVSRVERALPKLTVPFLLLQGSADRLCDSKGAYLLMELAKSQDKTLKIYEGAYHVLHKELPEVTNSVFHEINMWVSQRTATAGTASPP
It counts as biochemical.

The values that follow come from paper PMC11436673 (Journal of Experimental Pharmacology, 2024).

A word on the IC50: it is the concentration needed to halve the response being measured. A low value points to greater potency. On to `CC[C@H](CC[C@@H](C)[C@H]1CC[C@H]2[C@@H]3CC=C4C[C@@H](O)CC[C@]4(C)[C@H]3CC[C@]12C)C(C)C` [beta-sitosterol], for which inhibition was half-maximal at 19.5 µM (IC50).
